These results are taken from ChEMBL document CHEMBL1136374, “Inactivation of S-adenosyl-L-homocysteine hydrolase with novel 5'-thioadenosine derivatives. Antiviral effects” (Bioorg Med Chem Lett, 2003).

Each structure is given as a SMILES string. In brackets after ≈: the same amount, converted by molar mass. Activity calls are given as the source filed them. The rule behind the calls is not given here.

One experiment concerns Vero. The experiment in a line: Compound tested for cytotoxicity in vero cell culture was determined. Type of experiment: functional, Chlorocebus sabaeus.
In experiment [1] the target is T1, Adenosylhomocysteinase (Homo sapiens, UniProt P23526). The experiment in a line: Binding affinity against S-Adenosyl-homocysteine hydrolase was determined.
Target sequence in this assay (P23526 whole entry): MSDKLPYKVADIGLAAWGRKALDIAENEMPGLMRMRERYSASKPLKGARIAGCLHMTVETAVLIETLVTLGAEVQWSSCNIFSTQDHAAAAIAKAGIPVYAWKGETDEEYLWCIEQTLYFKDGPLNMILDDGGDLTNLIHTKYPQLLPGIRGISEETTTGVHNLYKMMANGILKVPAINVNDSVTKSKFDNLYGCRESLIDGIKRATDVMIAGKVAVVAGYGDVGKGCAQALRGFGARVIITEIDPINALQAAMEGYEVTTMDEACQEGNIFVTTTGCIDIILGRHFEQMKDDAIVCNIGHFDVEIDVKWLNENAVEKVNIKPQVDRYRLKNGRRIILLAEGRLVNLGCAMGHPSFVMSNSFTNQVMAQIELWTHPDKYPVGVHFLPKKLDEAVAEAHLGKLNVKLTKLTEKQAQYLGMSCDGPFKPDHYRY
Experiment [2] relates to HEL. The experiment in a line: Antiviral activity against Cytomegalovirus virus (CMV) strain AD-169 in HEL cells; No specific activity. Type of experiment: functional, cell-based. The note with it: Homo sapiens.
A further experiment has as its system Human respirovirus 3. The experiment in a line: Antiviral activity against Parainfluenza-3; No activity. Format: functional, organism-based.
Another experiment relates to Punta Toro virus. In words: Antiviral activity against Punta Toro virus; No activity. Format: functional, organism-based.
The test system of another experiment is Tacaribe virus. In words: Activity against Taccaribe virus was determined. As to conditions: Mammarenavirus tacaribeense. Type of experiment: functional.
The next experiment deals with Coxsackievirus B4. In words: Antiviral activity against Coxsackie B4 virus; No activity. Format: functional, organism-based.
The subject of a further experiment is E6SM. The experiment in a line: Compound tested for cytotoxicity in human embryonic skin muscle E6SM cell cultures. Type of experiment: functional.
The subject of a further experiment is Junin virus. The experiment in a line: Activity against Junin virus was determined. Type of experiment: functional. The note with it: Mammarenavirus juninense.
The next experiment concerns Sindbis virus. In words: Antiviral activity against Sindbis; No activity. Format: functional, organism-based.
In experiment [3] the target is T1, Adenosylhomocysteinase. The experiment in a line: Enzyme kinetic property: kinact value was determined.
Target sequence in this assay (P23526 2-432 limits assumed): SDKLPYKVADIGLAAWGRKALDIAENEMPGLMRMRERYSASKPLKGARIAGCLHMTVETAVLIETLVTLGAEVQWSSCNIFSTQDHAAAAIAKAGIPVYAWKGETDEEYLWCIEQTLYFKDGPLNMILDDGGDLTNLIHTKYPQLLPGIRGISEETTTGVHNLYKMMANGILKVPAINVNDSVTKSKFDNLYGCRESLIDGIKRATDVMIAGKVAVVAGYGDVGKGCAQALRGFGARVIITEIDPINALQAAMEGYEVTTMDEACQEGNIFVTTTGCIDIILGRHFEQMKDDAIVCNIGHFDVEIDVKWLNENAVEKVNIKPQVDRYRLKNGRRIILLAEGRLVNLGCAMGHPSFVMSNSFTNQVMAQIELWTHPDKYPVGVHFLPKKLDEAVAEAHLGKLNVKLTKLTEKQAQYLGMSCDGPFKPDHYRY
The target in experiment [4] is T1, Adenosylhomocysteinase. The experiment in a line: Change in the S-Adenosyl-homocysteine hydrolase enzyme's NAD+ content until complete inactivation was determined.
Target sequence in this assay (P23526 2-432 limits assumed): as above
Experiment [5] concerns HEL. In words: Antiviral activity against Cytomegalovirus virus (CMV) strain Davis in HEL cells; No specific activity. Format: functional, cell-based. The note with it: Homo sapiens.

As for `C=CSC[C@H]1OC(n2cnc3c(N)ncnc32)[C@H](O)[C@@H]1O` (stereo partly specified), the MTC in the experiment with Vero and with E6SM was over 650 µM throughout. This compound also returned a Ki on Adenosylhomocysteinase [1] of 4 µM. For the same compound, the MIC entry with HEL [2], in the experiment with Human respirovirus 3, in the experiment with Punta Toro virus, in the experiment with Coxsackievirus B4, with Sindbis virus and with HEL [5] was “inactive” each time. Moreover, the figures for the MIC in the experiment with Tacaribe virus and in the experiment with Junin virus were 40 µM (≈ 12.4 µg/mL) and 65 µM (≈ 20.1 µg/mL), respectively. The compound also had a K inact on Adenosylhomocysteinase [3] of 0.07 min⁻¹. The NAD at Adenosylhomocysteinase [4] came to 18%.

On to `C#CSC[C@H]1OC(n2cnc3c(N)ncnc32)[C@H](O)[C@@H]1O` (stereo partly specified), for which, at Adenosylhomocysteinase [1], the affinity corresponds to a Ki of 10 µM. Moreover, the MTC in the experiment with E6SM is 30 µM. Besides, the K inact on Adenosylhomocysteinase [3] turned out to be 0.12 min⁻¹. Besides, the NAD on Adenosylhomocysteinase [4] stood at 36%.

As to `N#CSC[C@H]1OC(n2cnc3c(N)ncnc32)[C@H](O)[C@@H]1O` (stereo partly specified), the affinity on Adenosylhomocysteinase [1] corresponds to a Ki of 67 µM. The compound further registered an MTC with E6SM of over 650 µM. On Adenosylhomocysteinase [3], the K inact was determined as 0.59 min⁻¹. Further, the NAD at Adenosylhomocysteinase [4] is 16%.

As a reminder, the Ki is the dissociation constant of the complex between target and ligand, obtained from inhibition or displacement. A low value points to higher affinity.
